Source: patent publication US20260070945A1, “MACROCYCLIC IMMUNOMODULATORS” (Bristol-Myers Squibb Company, priority 2022, published 2026)
Where a SMILES comes first, the peptide text is derived from it. Bridges are numbered along the chain shown (N, C = ends). [ ]: non-standard residue; d: D form. The star is where a group is joined. ξ: configuration not given here. Phe(4-COOH) = N[C@@H](Cc1ccc(C(=O)O)cc1)C(=O)O; Bip = N[C@@H](Cc1ccc(-c2ccccc2)cc1)C(=O)O; Aad = N[C@@H](CCCC(=O)O)C(=O)O; Cha = N[C@@H](CC1CCCCC1)C(=O)O; Cit = NC(=O)NCCC[C@H](N)C(=O)O; Ile(3ξ) = CCC(C)[C@H](N)C(=O)O; Thr(3ξ) = CC(O)[C@H](N)C(=O)O; Carboxymethyl = O=C(O)C*; NMeA = CN[C@@H](C)C(=O)O; Orn = NCCC[C@H](N)C(=O)O; Aun = NCCCCCCCCCCC(=O)O; Dab = NCC[C@H](N)C(=O)O; Dap = NC[C@H](N)C(=O)O; AEEA = NCCOCCOCC(=O)O

What follows are compounds tested against T1, PD-1/PD-L1 interaction (PE-labeled human PD-L1-Ig binding to Jurkat cell line over-expressing human PD-1) (Homo sapiens, UniProt Q15116) (assay: Jurkat-PD-1 Cell Binding High-Content Screening Assay (CBA)). Details: Jurkat-hPD-1 cells, PE-labeled PD-L1-Ig 20 nM final; read-out: Jurkat HPD1 PDL1 IC50.
T1 construct: expressed in transfected cells; host or cells: Jurkat
How it was run: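 In this imaging assay, cells in 10% FCS medium see compound for 2 h at 37 °C and then labeled ligand at 20 nM final for 1 h. Paraformaldehyde fixation, Hoechst 33342 staining and dPBS washes precede image capture.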

T1 sequence (Q15116 25-288): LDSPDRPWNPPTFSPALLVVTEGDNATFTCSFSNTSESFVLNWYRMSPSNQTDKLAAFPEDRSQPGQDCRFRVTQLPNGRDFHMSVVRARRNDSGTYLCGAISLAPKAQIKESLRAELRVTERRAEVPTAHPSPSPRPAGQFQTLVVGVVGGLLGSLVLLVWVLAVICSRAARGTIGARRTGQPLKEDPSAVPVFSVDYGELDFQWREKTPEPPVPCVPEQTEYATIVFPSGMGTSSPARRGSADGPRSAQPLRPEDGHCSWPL

Point of comparison: `CCC(C)[C@@H]1NC(=O)[C@H](Cc2ccc(-c3ccccc3)cc2)NC(=O)[C@H](C(C)C)NC(=O)[C@H](Cc2c[nH]c3ccccc23)NC(=O)[C@H](CC(=O)O)NC(=O)[C@H](Cc2ccc(C(=O)O)cc2)NC(=O)[C@H](Cc2ccc(OCC(=O)O)cc2)NC(=O)CSC[C@@H](C(=O)N[C@@H](CCCN)C(=O)NCCOCCOCC(=O)NCCCCCCCCCCC(=O)O)NC(=O)[C@H](C(C)O)NC(=O)[C@H](C(C)C)NC(=O)[C@H](CC2CCCCC2)NC(=O)[C@H](CCN)NC(=O)[C@@H](CC(C)C)NC(=O)[C@H](C)N(C)C1=O` (stereo partly drawn) [Example 2149] ({CH2CO}-Y(Carboxymethyl)[Phe(4-COOH)]DWV[Bip][Ile(3ξ)][NMeA][dL][Dab][Cha]V[Thr(3ξ)]C[Orn][AEEA][Aun]-OH; thioether N-14), IC50 17.7 nM. Against it:
- CC(C)C[C@@H]1NC(=O)[C@H](Cc2c[nH]c3ccccc23)NC(=O)[C@H](CC(=O)O)NC(=O)[C@H](Cc2ccc(C(=O)O)cc2)NC(=O)[C@H](Cc2ccc(OCC(=O)O)cc2)NC(=O)CSC[C@@H](C(=O)N[C@@H](CCCN)C(=O)NCCOCCOCC(=O)NCCCCCCCCCCC(=O)O)NC(=O)[C@H](CCN)NC(=O)[C@H](C(C)C)NC(=O)[C@H](CC2CCCCC2)NC(=O)[C@H](CCN)NC(=O)[C@@H](CC(C)C)NC(=O)[C@H](C)N(C)C(=O)[C@H](C(C)C)NC(=O)[C@H](Cc2ccc(-c3ccccc3)cc2)NC1=O [Example 2150] ({CH2CO}-Y(Carboxymethyl)[Phe(4-COOH)]DWL[Bip]V[NMeA][dL][Dab][Cha]V[Dab]C[Orn][AEEA][Aun]-OH; thioether N-14) — within 1.5-fold, 14.1 nM
- CC(C)C[C@@H]1NC(=O)[C@H](Cc2c[nH]c3ccccc23)NC(=O)[C@H](CC(=O)O)NC(=O)[C@H](Cc2ccc(C(=O)O)cc2)NC(=O)[C@H](Cc2ccc(OCC(=O)O)cc2)NC(=O)CSC[C@@H](C(=O)N[C@@H](CCCN)C(=O)NCCOCCOCC(=O)NCCCCCCCCCCC(=O)O)NC(=O)[C@H](CCCCN)NC(=O)[C@H](C(C)C)NC(=O)[C@H](CC2CCCCC2)NC(=O)[C@H](CCN)NC(=O)[C@@H](CC(C)C)NC(=O)[C@H](C)N(C)C(=O)[C@H](C(C)C)NC(=O)[C@H](Cc2ccc(-c3ccccc3)cc2)NC1=O [Example 2151] ({CH2CO}-Y(Carboxymethyl)[Phe(4-COOH)]DWL[Bip]V[NMeA][dL][Dab][Cha]VKC[Orn][AEEA][Aun]-OH; thioether N-14) — 2.1-fold lower, 8.5 nM
- CC(C)C[C@@H]1NC(=O)[C@H](Cc2c[nH]c3ccccc23)NC(=O)[C@H](CC(=O)O)NC(=O)[C@H](Cc2ccc(C(=O)O)cc2)NC(=O)[C@H](Cc2ccc(OCC(=O)O)cc2)NC(=O)CSC[C@@H](C(=O)N[C@@H](CCCN)C(=O)NCCOCCOCC(=O)NCCCCCCCCCCC(=O)O)NC(=O)[C@H](CCCCN)NC(=O)[C@H](C(C)C)NC(=O)[C@H](CC2CCCCC2)NC(=O)[C@H](CCCC(=O)O)NC(=O)[C@@H](CC(C)C)NC(=O)[C@H](C)N(C)C(=O)[C@H](C(C)C)NC(=O)[C@H](Cc2ccc(-c3ccccc3)cc2)NC1=O [Example 2152] ({CH2CO}-Y(Carboxymethyl)[Phe(4-COOH)]DWL[Bip]V[NMeA][dL][Aad][Cha]VKC[Orn][AEEA][Aun]-OH; thioether N-14) — within 1.5-fold, 19.9 nM
- CC(C)C[C@@H]1NC(=O)[C@H](Cc2c[nH]c3ccccc23)NC(=O)[C@H](CC(=O)O)NC(=O)[C@H](Cc2ccc(C(=O)O)cc2)NC(=O)[C@H](Cc2ccc(OCC(=O)O)cc2)NC(=O)CSC[C@@H](C(=O)N[C@@H](CCCN)C(=O)NCCOCCOCC(=O)NCCCCCCCCCCC(=O)O)NC(=O)[C@H](CCCC(=O)O)NC(=O)[C@H](C(C)C)NC(=O)[C@H](CC2CCCCC2)NC(=O)[C@H](CCN)NC(=O)[C@@H](CC(C)C)NC(=O)[C@H](C)N(C)C(=O)[C@H](C(C)C)NC(=O)[C@H](Cc2ccc(-c3ccccc3)cc2)NC1=O [Example 2153] ({CH2CO}-Y(Carboxymethyl)[Phe(4-COOH)]DWL[Bip]V[NMeA][dL][Dab][Cha]V[Aad]C[Orn][AEEA][Aun]-OH; thioether N-14) — within 1.5-fold, 16.7 nM
- CC(C)C[C@@H]1NC(=O)[C@H](Cc2c[nH]c3ccccc23)NC(=O)[C@H](CC(=O)O)NC(=O)[C@H](Cc2ccc(OCC(=O)O)cc2)NC(=O)[C@H](Cc2ccc(OCC(=O)O)cc2)NC(=O)CSC[C@@H](C(=O)N[C@@H](CCCCN)C(=O)NCCOCCOCC(=O)NCCCCCCCCCCC(=O)O)NC(=O)[C@H](CN)NC(=O)[C@H](C(C)C)NC(=O)[C@H](CC2CCCCC2)NC(=O)[C@H](CCN)NC(=O)[C@@H](CC(C)C)NC(=O)[C@H](C)N(C)C(=O)[C@H](C(C)C)NC(=O)[C@H](Cc2ccc(-c3ccccc3)cc2)NC1=O [Example 2154] ({CH2CO}-Y(Carboxymethyl)Y(Carboxymethyl)DWL[Bip]V[NMeA][dL][Dab][Cha]V[Dap]CK[AEEA][Aun]-OH; thioether N-14) — 1.6-fold lower, 11 nM
- CC(C)C[C@@H]1NC(=O)[C@H](Cc2c[nH]c3ccccc23)NC(=O)[C@H](CC(=O)O)NC(=O)[C@H](Cc2ccc(C(=O)O)cc2)NC(=O)[C@H](Cc2ccc(OCC(=O)O)cc2)NC(=O)CSC[C@@H](C(=O)NCCOCCOCC(=O)N[C@@H](CCN)C(=O)NCCCCCCCCCCC(=O)O)NC(=O)[C@H](CCCCN)NC(=O)[C@H](C(C)C)NC(=O)[C@H](CC2CCCCC2)NC(=O)[C@H](CCN)NC(=O)[C@@H](CC(C)C)NC(=O)[C@H](C)N(C)C(=O)[C@H](C(C)C)NC(=O)[C@H](Cc2ccc(-c3ccccc3)cc2)NC1=O [Example 2155] ({CH2CO}-Y(Carboxymethyl)[Phe(4-COOH)]DWL[Bip]V[NMeA][dL][Dab][Cha]VKC[AEEA][Dab][Aun]-OH; thioether N-14) — 2.7-fold lower, 6.6 nM
- CC(C)C[C@@H]1NC(=O)[C@H](Cc2c[nH]c3ccccc23)NC(=O)[C@H](CC(=O)O)NC(=O)[C@H](Cc2ccc(C(=O)O)cc2)NC(=O)[C@H](Cc2ccc(OCC(=O)O)cc2)NC(=O)CSC[C@@H](C(=O)NCCOCCOCC(=O)N[C@@H](CCN)C(=O)NCCCCCCCCCCC(=O)O)NC(=O)[C@H](CCCNC(N)=O)NC(=O)[C@H](C(C)C)NC(=O)[C@H](CC2CCCCC2)NC(=O)[C@H](CCN)NC(=O)[C@@H](CC(C)C)NC(=O)[C@H](C)N(C)C(=O)[C@H](C(C)C)NC(=O)[C@H](Cc2ccc(-c3ccccc3)cc2)NC1=O [Example 2156] ({CH2CO}-Y(Carboxymethyl)[Phe(4-COOH)]DWL[Bip]V[NMeA][dL][Dab][Cha]V[Cit]C[AEEA][Dab][Aun]-OH; thioether N-14) — within 1.5-fold, 16.5 nM
- CC(C)C[C@@H]1NC(=O)[C@H](Cc2c[nH]c3ccccc23)NC(=O)[C@H](CC(=O)O)NC(=O)[C@H](Cc2ccc(OCC(=O)O)cc2)NC(=O)[C@H](Cc2ccc(OCC(=O)O)cc2)NC(=O)CSC[C@@H](C(=O)N[C@@H](CCCCN)C(=O)NCCCCCCCCCCC(=O)O)NC(=O)[C@H](CCCN)NC(=O)[C@H](C(C)C)NC(=O)[C@H](CC2CCCCC2)NC(=O)[C@H](CCN)NC(=O)[C@@H](CC(C)C)NC(=O)[C@H](C)N(C)C(=O)[C@H](C(C)C)NC(=O)[C@H](Cc2ccc(-c3ccccc3)cc2)NC1=O [Example 2157] ({CH2CO}-Y(Carboxymethyl)Y(Carboxymethyl)DWL[Bip]V[NMeA][dL][Dab][Cha]V[Orn]CK[Aun]-OH; thioether N-14) — within 1.5-fold, 21 nM
